{"source": "paper PMC6240092", "about": "“NUAK2 is a critical YAP target in liver cancer” (Nature Communications, 2018)", "target": "T1, NUAK2 (Homo sapiens, UniProt Q9H093)", "T1 construct": "N-terminal GST-tagged NUAK2, expressed in HEK-293 cells and purified by glutathione-sepharose", "T1 sequence (Q9H093 1-628)": "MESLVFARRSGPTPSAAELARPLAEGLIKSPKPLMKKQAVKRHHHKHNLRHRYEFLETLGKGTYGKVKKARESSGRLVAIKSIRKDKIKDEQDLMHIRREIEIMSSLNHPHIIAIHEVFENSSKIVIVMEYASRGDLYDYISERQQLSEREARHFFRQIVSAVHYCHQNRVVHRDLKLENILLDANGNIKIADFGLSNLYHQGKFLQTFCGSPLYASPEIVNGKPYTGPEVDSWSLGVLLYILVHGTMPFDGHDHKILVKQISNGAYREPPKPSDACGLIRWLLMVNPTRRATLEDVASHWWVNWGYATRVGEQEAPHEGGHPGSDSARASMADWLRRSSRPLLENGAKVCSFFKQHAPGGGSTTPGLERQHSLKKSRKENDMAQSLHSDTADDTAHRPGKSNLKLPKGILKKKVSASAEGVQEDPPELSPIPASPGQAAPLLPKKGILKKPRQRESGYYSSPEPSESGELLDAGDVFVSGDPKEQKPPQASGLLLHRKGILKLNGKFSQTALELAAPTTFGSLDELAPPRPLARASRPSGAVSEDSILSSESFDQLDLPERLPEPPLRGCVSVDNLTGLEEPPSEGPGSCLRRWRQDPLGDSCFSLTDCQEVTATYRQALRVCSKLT", "assay": "radiometric peptide kinase assay with [γ-32P]ATP ([…]) and Sakamototide ([…])", "format": "biochemical"}
{"smiles": "CCC(=O)Nc1cccc(Oc2nc(Nc3ccc(N4CCN(C)CC4)cc3OC)ncc2I)c1", "note": "[HTH-02-006]", "values": [{"measurement": "IC50", "result": 126, "unit": "nM"}]}
